Test results reported in patent US8163724B2, “Glucocorticosteroids, processes for their preparation, pharmaceutical compositions containing them and their use in therapy” (AstraZeneca AB, priority 2007, dated 2012).
pIC50: −log10 of the molar value.

Biological target: T1, recombinant human GR (Homo sapiens, UniProt P04150)
T1 construct: purchased Panvera/Invitrogen P2812 (kit P2893)
T1 sequence (P04150 1-777): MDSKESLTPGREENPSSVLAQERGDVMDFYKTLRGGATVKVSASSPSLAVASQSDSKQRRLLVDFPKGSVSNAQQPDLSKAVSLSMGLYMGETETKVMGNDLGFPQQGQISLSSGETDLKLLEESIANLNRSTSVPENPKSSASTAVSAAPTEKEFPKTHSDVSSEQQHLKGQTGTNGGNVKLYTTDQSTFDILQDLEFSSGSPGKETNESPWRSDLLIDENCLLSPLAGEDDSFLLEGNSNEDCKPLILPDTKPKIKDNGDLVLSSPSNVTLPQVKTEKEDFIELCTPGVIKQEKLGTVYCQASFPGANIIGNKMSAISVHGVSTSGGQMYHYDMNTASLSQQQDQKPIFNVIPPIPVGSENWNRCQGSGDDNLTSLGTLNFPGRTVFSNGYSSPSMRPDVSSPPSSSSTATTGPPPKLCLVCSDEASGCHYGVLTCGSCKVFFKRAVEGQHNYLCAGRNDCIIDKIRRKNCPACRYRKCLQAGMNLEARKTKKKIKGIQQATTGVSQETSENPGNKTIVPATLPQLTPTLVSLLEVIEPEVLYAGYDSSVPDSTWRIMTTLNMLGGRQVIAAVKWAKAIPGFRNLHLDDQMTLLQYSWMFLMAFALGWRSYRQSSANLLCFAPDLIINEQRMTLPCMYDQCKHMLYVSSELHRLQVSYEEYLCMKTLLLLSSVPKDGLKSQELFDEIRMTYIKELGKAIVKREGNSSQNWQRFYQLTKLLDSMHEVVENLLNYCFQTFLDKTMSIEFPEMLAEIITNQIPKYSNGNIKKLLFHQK
Experiment: Human Glucocorticoid Receptor (GR) Assay (fluorescence polarization, Panvera/Invitrogen kit)
Format: binding
Settings: fluorescence polarization; GS Red tracer; 2 hours at room temperature; 100% control 10 μM Dexamethasone; read-out: Inhibition of GR binding, IC50
How it was run: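 Fluorescence polarization competition with recombinant GR and GS Red fluorescent ligand plus stabilizing peptide and DTT in potassium phosphate/sodium molybdate/EDTA buffer with DMSO. Incubated 2 hours at room temperature in the dark; 0% control DMSO, 100% control 10 μM dexamethasone.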

Row | SMILES | pIC50
1 | CCC(=O)O[C@]1(C(=O)SCC#N)CC[C@H]2[C@@H]3CCC4=Cc5c(cnn5-c5ccc(F)c(C(=O)SCC#N)c5)C[C@]4(C)[C@H]3[C@@H](O)C[C@@]21C [Example 174, (1R,3aS,3bS,10aR,10bS,11S,12aS)-1-{[(Cyanomethyl)sulfanyl]carbonyl}-7-(3-{[(cyanomethyl)sulfanyl]carbonyl}-4-fluorophenyl)-11-hydroxy-10a,12a-dimethyl-1,2,3,3a,3b,4,5,7,10,10a,10,12,12a-tetradecahydrocyclopenta[5,6]naphtho[1,2-f]indazol-1-yl propanoate] | 7.47
2 | CCC(=O)O[C@]1(C(=O)SC)CC[C@H]2[C@@H]3CCC4=Cc5c(cnn5-c5ccc(F)c(C(=O)SC)c5)C[C@]4(C)[C@H]3[C@@H](O)C[C@@]21C [Example 175, (1R,3aS,3bS,10aR,10bS,11S,12aS)-7-{4-Fluoro-3-[(methylsulfanyl)carbonyl]phenyl}-11-hydroxy-10a,12a-dimethyl-1-[(methylsulfanyl)carbonyl]-1,2,3,3a,3b,4,5,7,10,10a,10b,11,12,12a-tetradecahydrocyclopenta[5,6]naphtho[1,2-f]indazol-1-yl propanoate] | 7.74
3 | Cn1cccc1C(=O)O[C@]1(C(=O)SCC#N)CC[C@H]2[C@@H]3CCC4=Cc5c(cnn5-c5ccc(F)cc5)C[C@]4(C)[C@H]3[C@@H](O)C[C@@]21C [Example 176, (1R,3aS,3bS,10aR,10bS,11S,12aS)-1-{[(Cyanomethyl)thio]carbonyl}-7-(4-fluorophenyl)-11-hydroxy-10a,12a-dimethyl-1,2,3,3a,3b,4,5,7,10,10a,10b,11,12,12a-tetradecahydrocyclopenta[5,6]naphtho[1,2-f]indazol-1-yl 1-methyl-1H-pyrrole-2-carboxylate] | 7.96
4 | Cn1cccc1C(=O)O[C@]1(C(=O)SCF)CC[C@H]2[C@@H]3CCC4=Cc5c(cnn5-c5ccc(F)cc5)C[C@]4(C)[C@H]3[C@@H](O)C[C@@]21C [Example 177, (1R,3aS,3bS,10aR,10bS,11S,12aS)-1-{[(Fluoromethyl)thio]carbonyl}-7-(4-fluorophenyl)-11-hydroxy-10a,12a-dimethyl-1,2,3,3a,3b,4,5,7,10,10a,10b,11,12,12a-tetradecahydrocyclopenta[5,6]naphtho[1,2-f]indazol-1-yl 1-methyl-1H-pyrrole-2-carboxylate] | 8.12
5 | Cn1cccc1C(=O)O[C@]1(C(=O)SCCO)CC[C@H]2[C@@H]3CCC4=Cc5c(cnn5-c5ccc(F)cc5)C[C@]4(C)[C@H]3[C@@H](O)C[C@@]21C [Example 178, (1R,3aS,3bS,10aR,10bS,11S,12aS)-7-(4-Fluorophenyl)-11-hydroxy-1-{[(2-hydroxyethyl)thio]carbonyl}-10a,12a-dimethyl-1,2,3,3a,3b,4,5,7,10a,10b,11,12,12a-tetradecahydrocyclopenta[5,6]naphtho[1,2]-indazol-1-yl 1-methyl-1H-pyrrole-2-carboxylate] | 8.12
6 | C[C@]12Cc3cnn(-c4ccnnc4)c3C=C1CC[C@@H]1[C@@H]2[C@@H](O)C[C@@]2(C)[C@H]1CC[C@]2(OC(=O)C1CC1)C(=O)OCC#N [Example 184, Cyanomethyl(1R,3aS,3bS,10aR,10bS,11S,12aS)-1-[(cyclopropylcarbonyl)oxy]-11-hydroxy-10a,12a-dimethyl-7-pyridazin-4-yl-1,2,3,3a,3b,4,5,7,10,10a,10b,11,12,12a-tetradecahydrocyclopenta[5,6]naphtho[1,2-f]indazole-1-carboxylate] | 8.77
7 | C[C@]12Cc3cnn(-c4ccc(F)nc4)c3C=C1CC[C@@H]1[C@@H]2[C@@H](O)C[C@@]2(C)[C@H]1CC[C@]2(OC(=O)[C@H]1CCCO1)C(=O)SCC#N [Example 185, (1R,3aS,3bS,10aR,10bS,11S,12aS)-1-{[(Cyanomethyl)sulfanyl]carbonyl}-7-(6-fluoropyridin-3-yl)-11-hydroxy-10a,12a-dimethyl-1,2,3,3a,3b,4,5,7,10,10a,10b,11,12,12a-tetradecahydrocyclopenta[5,6]naphtho[1,2-f]indazol-1-yl (2R)-tetrahydrofuran-2-carboxylate] | 8.57
8 | C[C@]12Cc3cnn(-c4ccc(F)nc4)c3C=C1CC[C@@H]1[C@@H]2[C@@H](O)C[C@@]2(C)[C@H]1CC[C@]2(OC(=O)[C@H]1CCCO1)C(=O)SCCO [Example 186, (1R,3aS,3bS,10aR,10bS,11S,12aS)-7-(6-Fluoropyridin-3-yl)-11-hydroxy-1-{[(2-hydroxyethyl)sulfanyl]carbonyl}-10a,12a-dimethyl-1,2,3,3a,3b,4,5,7,10,10a,10b,11,12,12a-tetradecahydrocyclopenta[5,6]naphtho[1,2-f]indazol-1-yl (2R)-tetrahydrofuran-2-carboxylate] | 8.64
9 | C[C@]12Cc3cnn(-c4ccc(F)nc4)c3C=C1CC[C@@H]1[C@@H]2[C@@H](O)C[C@@]2(C)[C@H]1CC[C@]2(OC(=O)[C@H]1CCCO1)C(=O)SCF [Example 187, (1R,3aS,3bS,10aR,10bS,11S,12aS)-1-{[(Fluoromethyl)sulfanyl]carbonyl}-7-(6-fluoropyridin-3-yl)-11-hydroxy-10a,12a-dimethyl-1,2,3,3a,3b,4,5,10,10a,10b,11,12,12a-tetradecahydrocyclopenta[5,6]naphtho[1,2-f]indazol-1-yl (2R)-tetrahydrofuran-2-carboxylate] | 8.64
10 | CSC(=O)[C@@]1(OC(=O)[C@H]2CCCO2)CC[C@H]2[C@@H]3CCC4=Cc5c(cnn5-c5ccc(F)nc5)C[C@]4(C)[C@H]3[C@@H](O)C[C@@]21C [Example 188, (1R,3aS,3bS,10aR,10bS,11S,12aS)-7-(6-Fluoropyridin-3-yl)-11-hydroxy-10a,12a-dimethyl-1-[(methylsulfanyl)carbonyl]-1,2,3,3a,3b,4,5,7,10,10a,10b,11,12,12a-tetradecahydrocyclopenta[5,6]naphtho[1,2]-indazol-1-yl (2R)-tetrahydrofuran-2-carboxylate] | 8.92
11 | C[C@]12Cc3cnn(-c4cnccn4)c3C=C1CC[C@@H]1[C@@H]2[C@@H](O)C[C@@]2(C)[C@H]1CC[C@]2(OC(=O)C1CC1)C(=O)SCC#N [Example 189, (1R,3aS,3bS,10aR,10bS,11S,12aS)-1-{[(Cyanomethyl)sulfanyl]carbonyl}-11-hydroxy-10a,12a-dimethyl-7-pyrazin-2-yl-1,2,3,3a,3b,4,5,7,10,10a,10b,11,12,12a-tetradecahydrocyclopenta[5,6]naphtho[1,2-f]indazol-1-yl cyclopropanecarboxylate] | 8.30
12 | C[C@]12Cc3cnn(-c4cnccn4)c3C=C1CC[C@@H]1[C@@H]2[C@@H](O)C[C@@]2(C)[C@H]1CC[C@]2(OC(=O)C1CC1)C(=O)SCCO [Example 190, (1R,3aS,3bS,10aR,10bS,11S,12aS)-11-Hydroxy-{[(2-hydroxyethyl)sulfanyl]carbonyl}-10a,12a-dimethyl-7-pyrazin-2-yl-1,2,3,3a,3b,4,5,7,10,10a,10b,11,12,12a-tetradecahydrocyclopenta[5,6]naphtho[1,2-f]indazol-1-yl cyclopropane carboxylate] | 8.43
13 | C[C@]12Cc3cnn(-c4ccc(F)cc4)c3C=C1CC[C@H]1[C@@H]3CC[C@](OC(=O)c4ccco4)(C(=O)SCC#N)[C@@]3(C)C[C@H](O)[C@@]12F [Example 193, (1R,3aS,3bS,10aS,10bR,11S,12aS)-1-{[(Cyanomethyl)sulfanyl]carbonyl}-10b-fluoro-7-(4-fluorophenyl)-11-hydroxy-10a,12a-dimethyl-1,2,3,3a,3b,4,5,7,10,10a,11,12,12a-tetradecahydrocyclopenta[5,6]naphtho[1,2-f]indazol-1-yl furan-2-carboxylate] | 8.48
14 | C[C@]12Cc3cnn(-c4ccc(F)cc4)c3C=C1CC[C@H]1[C@@H]3CC[C@](OC(=O)c4ccco4)(C(=O)SCF)[C@@]3(C)C[C@H](O)[C@@]12F [Example 194, (1R,3aS,3bS,10aS,10bR,11S,12aS)-1-{[(Fluoromethyl)sulfanyl]carbonyl}-10b-fluoro-7-(4-fluorophenyl)-11-hydroxy-10a,12a-dimethyl-1,2,3,3a,3b,4,5,7,10,10a,10b,11,12,12a-tetradecahydrocyclopenta[5,6]naphtho[1,2-f]indazol-1-yl furan-2-carboxylate] | 8.64
15 | C[C@]12Cc3cnn(-c4ccc(F)cc4)c3C=C1CC[C@H]1[C@@H]3CC[C@](OC(=O)C4CC4)(C(=O)SCC#N)[C@@]3(C)C[C@H](O)[C@@]12F [Example 195, (1R,3aS,3bS,10aS,10bR,11S,12aS)-1-{[(Cyanomethyl)sulfanyl]carbonyl}-10b-fluoro-7-(4-fluorophenyl)-11-hydroxy-10a,12a-dimethyl-1,2,3,3a,3b,4,5,7,10,10a,10b,11,12,12a-tetradecahydrocyclopenta[5,6]naphtho[1,2]-indazol-1-yl cyclopropanecarboxylate] | 8.33
